{"source": "patent US11414379B2", "about": "“SPAK kinase inhibitors as neuroprotective agents” (United States Government as represented by the Department …, priority 2018, dated 2022)", "assay_in_all_cases": "Kinase panel (Dundee profiling)", "assay_type_in_all_cases": "biochemical", "conditions_in_all_cases": "read-out: % residual kinase activity", "key": {"[1]": {"biological_target": "CLK2 (Homo sapiens, UniProt P49760)", "sequence (P49760 whole entry, species assumed)": "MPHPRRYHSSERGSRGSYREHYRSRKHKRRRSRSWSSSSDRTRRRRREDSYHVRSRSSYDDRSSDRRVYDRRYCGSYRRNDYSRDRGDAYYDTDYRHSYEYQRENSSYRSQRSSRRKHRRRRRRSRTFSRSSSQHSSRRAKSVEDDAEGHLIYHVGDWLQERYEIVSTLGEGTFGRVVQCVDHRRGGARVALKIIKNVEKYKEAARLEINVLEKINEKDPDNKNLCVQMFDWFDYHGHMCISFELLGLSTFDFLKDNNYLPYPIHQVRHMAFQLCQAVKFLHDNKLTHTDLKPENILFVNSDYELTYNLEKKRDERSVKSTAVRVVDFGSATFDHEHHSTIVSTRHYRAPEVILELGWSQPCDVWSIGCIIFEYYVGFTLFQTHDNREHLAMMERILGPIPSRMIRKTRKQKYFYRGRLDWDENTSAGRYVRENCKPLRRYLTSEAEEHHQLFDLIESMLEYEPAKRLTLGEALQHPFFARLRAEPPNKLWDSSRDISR", "how_it_was_run": "(§1)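 Each recombinant kinase of a 140-member panel was assayed radioisotopically in the presence of compound at 1 or 10 μM, and activity was expressed as percent remaining versus DMSO control (n=3, mean±SEM).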"}, "[2]": {"biological_target": "CK1γ2 (Homo sapiens, UniProt P78368)", "how_it_was_run": "as §1"}, "[3]": {"biological_target": "NEK6 (Homo sapiens, UniProt Q9HC98)", "sequence (Q9HC98 whole entry, species assumed)": "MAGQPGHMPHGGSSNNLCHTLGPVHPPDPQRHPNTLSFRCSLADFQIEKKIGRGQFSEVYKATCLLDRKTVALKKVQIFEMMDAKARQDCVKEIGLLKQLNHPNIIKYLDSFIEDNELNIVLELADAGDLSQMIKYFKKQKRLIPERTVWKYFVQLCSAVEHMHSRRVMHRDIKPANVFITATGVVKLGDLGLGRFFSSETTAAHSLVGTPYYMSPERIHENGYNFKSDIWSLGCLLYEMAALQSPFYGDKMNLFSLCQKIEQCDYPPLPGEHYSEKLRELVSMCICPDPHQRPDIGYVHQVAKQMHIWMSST", "how_it_was_run": "as §1"}, "[4]": {"biological_target": "SGK1 (Homo sapiens, UniProt O00141)", "how_it_was_run": "as §1"}, "[5]": {"biological_target": "CHK2 (Homo sapiens, UniProt O96017)", "sequence (O96017 whole entry, species assumed)": "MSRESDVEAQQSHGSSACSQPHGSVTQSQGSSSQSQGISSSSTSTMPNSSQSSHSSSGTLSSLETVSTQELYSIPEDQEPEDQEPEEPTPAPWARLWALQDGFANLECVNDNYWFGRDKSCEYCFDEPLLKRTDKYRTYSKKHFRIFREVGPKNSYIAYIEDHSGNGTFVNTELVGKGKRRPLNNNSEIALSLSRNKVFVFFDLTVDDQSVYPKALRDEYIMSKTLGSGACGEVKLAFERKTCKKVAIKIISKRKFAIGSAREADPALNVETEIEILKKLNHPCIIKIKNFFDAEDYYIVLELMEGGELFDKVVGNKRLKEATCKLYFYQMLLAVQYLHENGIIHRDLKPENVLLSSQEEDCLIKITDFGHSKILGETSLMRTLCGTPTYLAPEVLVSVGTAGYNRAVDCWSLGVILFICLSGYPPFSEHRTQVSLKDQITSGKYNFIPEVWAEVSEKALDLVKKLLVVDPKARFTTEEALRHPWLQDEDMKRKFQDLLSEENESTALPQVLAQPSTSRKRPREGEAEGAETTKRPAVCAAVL", "how_it_was_run": "as §1"}, "[6]": {"biological_target": "HIPK3 (Homo sapiens, UniProt Q9H422)", "how_it_was_run": "as §1"}, "[7]": {"biological_target": "ERK5 (Homo sapiens, UniProt Q13164)", "how_it_was_run": "as §1"}, "[8]": {"biological_target": "p38b MAPK (Homo sapiens, UniProt Q15759)", "how_it_was_run": "as §1"}, "[9]": {"biological_target": "TSSK1 (Homo sapiens, UniProt Q9BXA7)", "how_it_was_run": "as §1"}, "[10]": {"biological_target": "MAP4K5 (Homo sapiens, UniProt Q9Y4K4)", "how_it_was_run": "as §1"}, "[11]": {"biological_target": "PAK2 (Homo sapiens, UniProt Q13177)", "sequence (Q13177 whole entry, species assumed)": "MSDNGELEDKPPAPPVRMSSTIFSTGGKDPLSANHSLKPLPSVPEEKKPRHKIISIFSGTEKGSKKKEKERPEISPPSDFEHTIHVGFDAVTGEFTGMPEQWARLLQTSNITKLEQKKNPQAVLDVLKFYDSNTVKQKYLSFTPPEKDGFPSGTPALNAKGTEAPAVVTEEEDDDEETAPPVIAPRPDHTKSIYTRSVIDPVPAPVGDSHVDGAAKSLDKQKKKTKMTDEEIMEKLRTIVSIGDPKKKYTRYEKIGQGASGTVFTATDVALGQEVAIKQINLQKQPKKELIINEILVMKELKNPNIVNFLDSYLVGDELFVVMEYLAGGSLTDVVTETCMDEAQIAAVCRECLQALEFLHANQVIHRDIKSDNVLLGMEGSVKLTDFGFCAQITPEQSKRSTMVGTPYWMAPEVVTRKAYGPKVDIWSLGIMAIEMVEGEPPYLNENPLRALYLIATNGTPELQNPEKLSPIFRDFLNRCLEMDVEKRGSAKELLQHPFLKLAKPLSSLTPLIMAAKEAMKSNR", "how_it_was_run": "as §1"}, "[12]": {"biological_target": "TAO1 (Homo sapiens, UniProt Q7L7X3)", "how_it_was_run": "as §1"}, "[13]": {"biological_target": "OSR1 (Homo sapiens, UniProt O95747)", "sequence (O95747 whole entry)": "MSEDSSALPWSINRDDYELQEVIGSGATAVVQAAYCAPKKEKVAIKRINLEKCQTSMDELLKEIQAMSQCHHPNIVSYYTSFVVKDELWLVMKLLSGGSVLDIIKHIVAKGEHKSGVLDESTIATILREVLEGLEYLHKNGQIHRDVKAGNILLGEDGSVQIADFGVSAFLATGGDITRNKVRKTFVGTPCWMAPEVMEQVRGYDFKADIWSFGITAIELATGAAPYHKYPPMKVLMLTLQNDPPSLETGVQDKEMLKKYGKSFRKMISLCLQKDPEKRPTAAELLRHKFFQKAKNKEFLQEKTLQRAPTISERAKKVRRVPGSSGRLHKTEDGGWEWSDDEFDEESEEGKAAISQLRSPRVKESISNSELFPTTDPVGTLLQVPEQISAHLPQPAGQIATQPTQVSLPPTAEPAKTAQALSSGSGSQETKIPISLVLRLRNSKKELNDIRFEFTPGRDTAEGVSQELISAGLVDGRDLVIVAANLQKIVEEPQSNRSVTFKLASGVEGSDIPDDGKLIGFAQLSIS", "how_it_was_run": "as §1"}, "[14]": {"biological_target": "EPH-B1 (Homo sapiens, UniProt P54762)", "how_it_was_run": "as §1"}, "[15]": {"biological_target": "MLK1 (Homo sapiens, UniProt P80192)", "how_it_was_run": "as §1"}, "[16]": {"biological_target": "MLK3 (Homo sapiens, UniProt Q16584)", "sequence (Q16584 whole entry, species assumed)": "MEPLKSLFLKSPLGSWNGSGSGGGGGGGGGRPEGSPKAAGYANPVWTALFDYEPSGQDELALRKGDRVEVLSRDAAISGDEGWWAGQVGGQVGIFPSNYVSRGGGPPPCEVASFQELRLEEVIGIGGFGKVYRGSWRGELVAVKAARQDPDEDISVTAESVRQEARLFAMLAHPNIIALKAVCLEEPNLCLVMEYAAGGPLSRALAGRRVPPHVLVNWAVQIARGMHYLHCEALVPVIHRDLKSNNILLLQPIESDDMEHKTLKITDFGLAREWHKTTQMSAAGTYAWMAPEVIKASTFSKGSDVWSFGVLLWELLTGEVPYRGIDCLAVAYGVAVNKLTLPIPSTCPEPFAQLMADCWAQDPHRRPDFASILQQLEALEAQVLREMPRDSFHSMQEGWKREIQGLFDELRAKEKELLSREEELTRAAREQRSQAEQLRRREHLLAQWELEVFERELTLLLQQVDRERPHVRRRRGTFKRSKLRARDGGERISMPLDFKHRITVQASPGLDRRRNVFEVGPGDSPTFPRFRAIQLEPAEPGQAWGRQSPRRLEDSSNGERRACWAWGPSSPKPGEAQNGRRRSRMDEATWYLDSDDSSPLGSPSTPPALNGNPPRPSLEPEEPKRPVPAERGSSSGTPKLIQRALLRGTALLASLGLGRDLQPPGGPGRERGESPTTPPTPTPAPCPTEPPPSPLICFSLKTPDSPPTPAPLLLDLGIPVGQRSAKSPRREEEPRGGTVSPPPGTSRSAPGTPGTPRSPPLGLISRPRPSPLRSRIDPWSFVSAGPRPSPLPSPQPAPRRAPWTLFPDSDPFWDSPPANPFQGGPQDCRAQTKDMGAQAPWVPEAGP", "how_it_was_run": "as §1"}, "[17]": {"biological_target": "EPH-A2 (Homo sapiens, UniProt P29317)", "how_it_was_run": "as §1"}, "[18]": {"biological_target": "PRAK (Homo sapiens, UniProt Q8IW41)", "how_it_was_run": "as §1"}, "[19]": {"biological_target": "SIK2 (Homo sapiens, UniProt Q9H0K1)", "how_it_was_run": "as §1"}, "[20]": {"biological_target": "MARK4 (Homo sapiens, UniProt Q96L34)", "how_it_was_run": "as §1"}, "[21]": {"biological_target": "MARK1 (Homo sapiens, UniProt Q9P0L2)", "how_it_was_run": "as §1"}, "[22]": {"biological_target": "JAK2 (Homo sapiens, UniProt O60674)", "how_it_was_run": "as §1"}, "[23]": {"biological_target": "GCK (Homo sapiens, UniProt Q12851)", "how_it_was_run": "as §1"}, "[24]": {"biological_target": "p38a MAPK (Homo sapiens, UniProt Q16539)", "sequence (Q16539 whole entry)": "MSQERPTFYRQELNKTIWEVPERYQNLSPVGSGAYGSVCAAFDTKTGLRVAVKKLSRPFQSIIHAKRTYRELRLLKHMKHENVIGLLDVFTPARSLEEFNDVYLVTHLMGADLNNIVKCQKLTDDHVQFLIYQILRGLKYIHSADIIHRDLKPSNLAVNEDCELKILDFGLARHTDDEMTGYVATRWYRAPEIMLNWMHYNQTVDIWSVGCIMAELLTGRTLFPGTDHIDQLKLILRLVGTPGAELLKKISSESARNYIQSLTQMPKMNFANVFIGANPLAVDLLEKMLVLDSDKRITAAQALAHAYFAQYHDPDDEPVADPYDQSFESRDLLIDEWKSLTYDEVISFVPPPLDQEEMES", "how_it_was_run": "as §1"}, "[25]": {"biological_target": "ASK1 (Homo sapiens, UniProt Q99683)", "sequence (Q99683 whole entry, species assumed)": "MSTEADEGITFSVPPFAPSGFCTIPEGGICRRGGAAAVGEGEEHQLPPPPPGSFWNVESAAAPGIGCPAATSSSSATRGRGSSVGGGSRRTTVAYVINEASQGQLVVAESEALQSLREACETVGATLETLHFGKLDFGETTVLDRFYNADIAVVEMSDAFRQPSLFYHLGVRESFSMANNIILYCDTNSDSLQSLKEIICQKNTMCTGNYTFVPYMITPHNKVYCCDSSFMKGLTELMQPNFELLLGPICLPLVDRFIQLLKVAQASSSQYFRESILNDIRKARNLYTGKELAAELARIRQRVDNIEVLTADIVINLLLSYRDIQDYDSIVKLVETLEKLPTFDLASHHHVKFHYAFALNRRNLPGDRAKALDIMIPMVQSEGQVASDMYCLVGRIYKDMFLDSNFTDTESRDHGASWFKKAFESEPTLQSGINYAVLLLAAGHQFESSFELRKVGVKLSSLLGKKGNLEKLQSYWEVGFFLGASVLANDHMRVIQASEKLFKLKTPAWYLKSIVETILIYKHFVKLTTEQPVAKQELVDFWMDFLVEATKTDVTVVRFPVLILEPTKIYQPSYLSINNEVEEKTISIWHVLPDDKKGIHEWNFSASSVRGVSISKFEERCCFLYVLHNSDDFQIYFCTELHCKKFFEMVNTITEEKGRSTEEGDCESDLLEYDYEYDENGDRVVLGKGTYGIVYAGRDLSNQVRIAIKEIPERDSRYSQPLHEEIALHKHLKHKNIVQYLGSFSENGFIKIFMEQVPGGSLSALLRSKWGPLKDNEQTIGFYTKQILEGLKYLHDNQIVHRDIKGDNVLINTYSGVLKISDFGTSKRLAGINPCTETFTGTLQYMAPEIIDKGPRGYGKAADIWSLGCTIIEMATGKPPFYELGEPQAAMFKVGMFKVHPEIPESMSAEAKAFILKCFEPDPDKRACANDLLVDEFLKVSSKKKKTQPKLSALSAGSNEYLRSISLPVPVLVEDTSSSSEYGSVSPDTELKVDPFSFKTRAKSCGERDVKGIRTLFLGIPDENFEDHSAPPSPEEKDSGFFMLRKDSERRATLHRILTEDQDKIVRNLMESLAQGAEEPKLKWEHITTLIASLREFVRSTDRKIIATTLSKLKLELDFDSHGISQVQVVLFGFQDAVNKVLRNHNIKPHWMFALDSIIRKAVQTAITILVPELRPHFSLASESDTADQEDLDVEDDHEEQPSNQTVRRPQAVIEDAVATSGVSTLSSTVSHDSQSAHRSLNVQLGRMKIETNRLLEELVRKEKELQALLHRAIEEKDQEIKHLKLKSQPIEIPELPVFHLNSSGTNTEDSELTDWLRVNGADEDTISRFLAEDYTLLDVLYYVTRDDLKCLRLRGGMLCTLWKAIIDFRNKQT", "how_it_was_run": "as §1"}}}
{"smiles": "Cc1cc(C(C#N)c2ccc(Cl)cc2)c(Cl)cc1NC(=O)c1cc(Cl)ccc1O", "note": "(centres unmarked) [ZT-1a, 5-chloro-N-(5-chloro-4-((4-chlorophenyl)(cyano)methyl)-2-methylphenyl)-2-hydroxy-benzamide]", "values": [{"measurement": "remaining activity at 1 µM", "setting": "[1]; 1 μM", "result": "68 ± 12", "unit": "%"}, {"measurement": "remaining activity at 10 µM", "setting": "[1]; 10 μM", "result": "33 ± 45", "unit": "%"}, {"measurement": "remaining activity at 1 µM", "setting": "[2]; 1 μM", "result": "112 ± 12", "unit": "%"}, {"measurement": "remaining activity at 10 µM", "setting": "[2]; 10 μM", "result": "124 ± 23", "unit": "%"}, {"measurement": "remaining activity at 1 µM", "setting": "[3]; 1 μM", "result": "107 ± 6", "unit": "%"}, {"measurement": "remaining activity at 10 µM", "setting": "[3]; 10 μM", "result": "108 ± 1", "unit": "%"}, {"measurement": "remaining activity at 1 µM", "setting": "[4]; 1 μM", "result": "73 ± 14", "unit": "%"}, {"measurement": "remaining activity at 10 µM", "setting": "[4]; 10 μM", "result": "58 ± 5", "unit": "%"}, {"measurement": "remaining activity at 1 µM", "setting": "[5]; 1 μM", "result": "106 ± 1", "unit": "%"}, {"measurement": "remaining activity at 10 µM", "setting": "[5]; 10 μM", "result": "68 ± 6", "unit": "%"}, {"measurement": "remaining activity at 1 µM", "setting": "[6]; 1 μM", "result": "84 ± 3", "unit": "%"}, {"measurement": "remaining activity at 10 µM", "setting": "[6]; 10 μM", "result": "76 ± 2", "unit": "%"}, {"measurement": "remaining activity at 1 µM", "setting": "[7]; 1 μM", "result": "120 ± 9", "unit": "%"}, {"measurement": "remaining activity at 10 µM", "setting": "[7]; 10 μM", "result": "114 ± 5", "unit": "%"}, {"measurement": "remaining activity at 1 µM", "setting": "[8]; 1 μM", "result": "124 ± 1", "unit": "%"}, {"measurement": "remaining activity at 10 µM", "setting": "[8]; 10 μM", "result": 124, "unit": "%"}, {"measurement": "remaining activity at 1 µM", "setting": "[9]; 1 μM", "result": "99 ± 2", "unit": "%"}, {"measurement": "remaining activity at 10 µM", "setting": "[9]; 10 μM", "result": "74 ± 6", "unit": "%"}, {"measurement": "remaining activity at 1 µM", "setting": "[10]; 1 μM", "result": "95 ± 28", "unit": "%"}, {"measurement": "remaining activity at 10 µM", "setting": "[10]; 10 μM", "result": "76 ± 9", "unit": "%"}, {"measurement": "remaining activity at 1 µM", "setting": "[11]; 1 μM", "result": "110 ± 4", "unit": "%"}, {"measurement": "remaining activity at 10 µM", "setting": "[11]; 10 μM", "result": "93 ± 8", "unit": "%"}, {"measurement": "remaining activity at 1 µM", "setting": "[12]; 1 μM", "result": "66 ± 2", "unit": "%"}, {"measurement": "remaining activity at 10 µM", "setting": "[12]; 10 μM", "result": "104 ± 2", "unit": "%"}, {"measurement": "remaining activity at 1 µM", "setting": "[13]; 1 μM", "result": "106 ± 9", "unit": "%"}, {"measurement": "remaining activity at 10 µM", "setting": "[13]; 10 μM", "result": "98 ± 3", "unit": "%"}, {"measurement": "remaining activity at 1 µM", "setting": "[14]; 1 μM", "result": "77 ± 15", "unit": "%"}, {"measurement": "remaining activity at 10 µM", "setting": "[14]; 10 μM", "result": "80 ± 19", "unit": "%"}, {"measurement": "remaining activity at 1 µM", "setting": "[15]; 1 μM", "result": "94 ± 4", "unit": "%"}, {"measurement": "remaining activity at 10 µM", "setting": "[15]; 10 μM", "result": "81 ± 21", "unit": "%"}, {"measurement": "remaining activity at 1 µM", "setting": "[16]; 1 μM", "result": "119 ± 11", "unit": "%"}, {"measurement": "remaining activity at 10 µM", "setting": "[16]; 10 μM", "result": "114 ± 3", "unit": "%"}, {"measurement": "remaining activity at 1 µM", "setting": "[17]; 1 μM", "result": "89 ± 23", "unit": "%"}, {"measurement": "remaining activity at 10 µM", "setting": "[17]; 10 μM", "result": "78 ± 11", "unit": "%"}, {"measurement": "remaining activity at 1 µM", "setting": "[18]; 1 μM", "result": "78 ± 13", "unit": "%"}, {"measurement": "remaining activity at 10 µM", "setting": "[18]; 10 μM", "result": "41 ± 7", "unit": "%"}, {"measurement": "remaining activity at 1 µM", "setting": "[19]; 1 μM", "result": "105 ± 16", "unit": "%"}, {"measurement": "remaining activity at 10 µM", "setting": "[19]; 10 μM", "result": "76 ± 8", "unit": "%"}, {"measurement": "remaining activity at 1 µM", "setting": "[20]; 1 μM", "result": "68 ± 8", "unit": "%"}, {"measurement": "remaining activity at 10 µM", "setting": "[20]; 10 μM", "result": "59 ± 9", "unit": "%"}, {"measurement": "remaining activity at 1 µM", "setting": "[21]; 1 μM", "result": "104 ± 16", "unit": "%"}, {"measurement": "remaining activity at 10 µM", "setting": "[21]; 10 μM", "result": "91 ± 5", "unit": "%"}, {"measurement": "remaining activity at 1 µM", "setting": "[22]; 1 μM", "result": "125 ± 6", "unit": "%"}, {"measurement": "remaining activity at 10 µM", "setting": "[22]; 10 μM", "result": "123 ± 8", "unit": "%"}, {"measurement": "remaining activity at 1 µM", "setting": "[23]; 1 μM", "result": "112 ± 4", "unit": "%"}, {"measurement": "remaining activity at 10 µM", "setting": "[23]; 10 μM", "result": "97 ± 3", "unit": "%"}, {"measurement": "remaining activity at 1 µM", "setting": "[24]; 1 μM", "result": "128 ± 7", "unit": "%"}, {"measurement": "remaining activity at 10 µM", "setting": "[24]; 10 μM", "result": "113 ± 2", "unit": "%"}, {"measurement": "remaining activity at 1 µM", "setting": "[25]; 1 μM", "result": "101 ± 3", "unit": "%"}, {"measurement": "remaining activity at 10 µM", "setting": "[25]; 10 μM", "result": "100 ± 11", "unit": "%"}]}
